In ChEMBL document CHEMBL1909046, “DrugMatrix in vitro pharmacology data”:

Experiments:
[1] = molecular target: Melanocortin receptor 5 (Homo sapiens, UniProt P33032); format: cell membranes, HEK293, Membrane; conditions: hek293; also: in other assays of this panel Not Active means under 50% inhibition at 10 µM
[2] = DRUGMATRIX: Glutamate, NMDA, Phencyclidine radioligand binding (ligand: [3H] TCP); format: cell membranes, Rattus norvegicus, Wistar, Cerebral cortex, Membrane; conditions: Not Active = under 50% inhibition at 10 µM
[3] = DRUGMATRIX: Phorbol Ester radioligand binding (ligand: [3H] PDBu); format: cell membranes, Mus musculus, ICR, Brain, Membrane; conditions: Not Active = under 50% inhibition at 10 µM
[4] = DRUGMATRIX: Sodium/nucleoside co-transporter radioligand binding (ligand: nitrobenzylthioinosine); format: cell membranes, Cavia porcellus, Dunkin-Hartley, Cerebral cortex, Membrane; conditions: Not Active = under 50% inhibition at 10 µM
[5] = molecular target: Melanocortin receptor 3 (Homo sapiens, UniProt P41968); format: cell membranes, Membrane; conditions: hek293; also: in other assays of this panel Not Active means under 50% inhibition at 10 µM
[6] = molecular target: T1, C-C chemokine receptor type 4 (Homo sapiens, UniProt P51679); format: cell membranes, Membrane; conditions: chem-1; also: in other assays of this panel Not Active means under 50% inhibition at 10 µM
T1 sequence (P51679 whole entry): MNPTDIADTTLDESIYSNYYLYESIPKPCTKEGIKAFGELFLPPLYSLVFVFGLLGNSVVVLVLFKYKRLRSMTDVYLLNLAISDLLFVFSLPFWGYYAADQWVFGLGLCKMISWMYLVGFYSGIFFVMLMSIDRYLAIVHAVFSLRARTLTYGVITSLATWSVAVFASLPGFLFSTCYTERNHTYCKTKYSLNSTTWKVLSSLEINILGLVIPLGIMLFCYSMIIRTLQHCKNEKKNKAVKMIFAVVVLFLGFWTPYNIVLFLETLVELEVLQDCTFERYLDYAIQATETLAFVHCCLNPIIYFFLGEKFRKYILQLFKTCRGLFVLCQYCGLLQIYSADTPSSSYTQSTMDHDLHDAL

[7] = molecular target: Mitogen-activated protein kinase 3 (Homo sapiens, UniProt P27361); assay: DRUGMATRIX: Protein Serine/Threonine Kinase, ERK1 enzyme inhibition (substrate: Myelin Basic Protein); design: species or system Escherichia coli; conditions: Not Active = under 50% inhibition at 10 µM
Sequence of Mitogen-activated protein kinase 3 (P27361 whole entry): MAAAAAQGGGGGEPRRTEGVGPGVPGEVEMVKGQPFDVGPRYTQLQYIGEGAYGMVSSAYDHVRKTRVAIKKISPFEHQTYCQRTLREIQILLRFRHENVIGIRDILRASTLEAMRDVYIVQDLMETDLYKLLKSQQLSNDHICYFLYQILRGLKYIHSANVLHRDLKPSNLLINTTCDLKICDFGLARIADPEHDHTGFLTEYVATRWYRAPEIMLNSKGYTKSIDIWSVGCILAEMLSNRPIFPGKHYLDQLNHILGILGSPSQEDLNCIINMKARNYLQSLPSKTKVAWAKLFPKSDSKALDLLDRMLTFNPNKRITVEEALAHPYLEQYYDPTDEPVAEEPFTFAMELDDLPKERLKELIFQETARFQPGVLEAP

Sequence of Melanocortin receptor 5 (P33032 whole entry): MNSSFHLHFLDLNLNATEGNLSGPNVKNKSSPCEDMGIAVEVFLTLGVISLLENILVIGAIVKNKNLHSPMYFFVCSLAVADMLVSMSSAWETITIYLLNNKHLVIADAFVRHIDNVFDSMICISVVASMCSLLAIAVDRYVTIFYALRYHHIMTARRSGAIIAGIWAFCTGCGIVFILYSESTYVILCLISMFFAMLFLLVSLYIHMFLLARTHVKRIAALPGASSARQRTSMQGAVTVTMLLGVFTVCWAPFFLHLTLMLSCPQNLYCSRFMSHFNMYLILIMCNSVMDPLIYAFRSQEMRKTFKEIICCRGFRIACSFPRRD
Sequence of Melanocortin receptor 3 (P41968 whole entry): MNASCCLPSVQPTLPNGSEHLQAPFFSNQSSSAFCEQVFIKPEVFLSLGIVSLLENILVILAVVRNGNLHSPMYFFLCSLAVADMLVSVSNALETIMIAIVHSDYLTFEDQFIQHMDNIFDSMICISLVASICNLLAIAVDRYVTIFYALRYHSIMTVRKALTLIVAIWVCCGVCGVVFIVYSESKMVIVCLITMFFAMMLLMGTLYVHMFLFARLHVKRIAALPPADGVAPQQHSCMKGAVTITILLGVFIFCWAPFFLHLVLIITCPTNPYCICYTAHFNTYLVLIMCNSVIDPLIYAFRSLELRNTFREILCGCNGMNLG

| Compound | IC50 [1] | IC50 [2] | Ki [2] | IC50 [3] | Ki [3] | IC50 [4] | Ki [4] | IC50 [5] | IC50 [6] | IC50 [7] | IC50 ([7]; read-out: IC50) | IC50 ([4]; read-out: IC50) | Ki ([4]; read-out: Ki) |
| --- | --- | --- | --- | --- | --- | --- | --- | --- | --- | --- | --- | --- | --- |
| C[C@]12CC[C@H]3[C@@H](CCC4=CC(=O)CC[C@@]43C)[C@@H]1CC[C@@H]2O [TESTOSTERONE] | Not Active | Not Active | Not Active | Not Active | Not Active | Not Active | Not Active | Not Active | Not Active | Not Active | – | – | – |
| C[C@@H]1C[C@H]2[C@@H]3CCC4=CC(=O)C=C[C@]4(C)C3=CC[C@]2(C)[C@H]1C(=O)CN1CCN(c2cc(N3CCCC3)nc(N3CCCC3)n2)CC1 [TIRILAZAD] | Not Active | Not Active | Not Active | Not Active | Not Active | Not Active | Not Active | Not Active | Not Active | – | 16300 nM | – | – |
| NC[C@H]1O[C@H](O[C@H]2[C@H](O)[C@@H](O[C@H]3O[C@H](CO)[C@@H](O)[C@H](N)[C@H]3O)[C@H](N)C[C@@H]2N)[C@H](N)C[C@@H]1O [TOBRAMYCIN] | Not Active | Not Active | Not Active | Not Active | Not Active | Not Active | Not Active | Not Active | Not Active | Not Active | – | – | – |
| CN[C@@H]1[C@H](O)[C@H](NC)[C@H]2O[C@@]3(O)C(=O)C[C@@H](C)O[C@H]3O[C@@H]2[C@H]1O [SPECTINOMYCIN] | Not Active | Not Active | Not Active | Not Active | Not Active | Not Active | Not Active | Not Active | Not Active | Not Active | – | – | – |
| CO[C@H]1C[C@@H]2CC[C@@H](C)[C@@](O)(O2)C(=O)C(=O)N2CCCC[C@H]2C(=O)O[C@H]([C@H](C)C[C@@H]2CC[C@@H](O)[C@H](OC)C2)CC(=O)[C@H](C)/C=C(\C)[C@@H](O)[C@@H](OC)C(=O)[C@H](C)C[C@H](C)/C=C/C=C/C=C/1C [SIROLIMUS] | Not Active | Not Active | Not Active | Not Active | Not Active | – | – | Not Active | Not Active | Not Active | – | 1080 nM | 371 nM |
| O=P(O)(O)C(O)(Cc1cccnc1)P(=O)(O)O [RISEDRONIC ACID] | Not Active | Not Active | Not Active | Not Active | Not Active | Not Active | Not Active | Not Active | Not Active | Not Active | – | – | – |
| COc1ccc(CN2CCNCC2)c(OC)c1OC [TRIMETAZIDINE] | Not Active | Not Active | Not Active | Not Active | Not Active | Not Active | Not Active | Not Active | Not Active | Not Active | – | – | – |
